Data taken from PubChem BioAssay AID256 (DTP/NCI, 2004).
Where “and” joins values, the source holds several entries; their conditions need not be identical. Identical values can stand only once. Inconclusive results and toxic doses are left out. The calls were made as follows: active = survival T/C of 150% or more; inactive = T/C below 125% in these data.

Test system: CD2F1 mice, L1210 leukemia ip, survival T/C
Assay: NCI In Vivo Anticancer Drug Screen. Data for tumor model L1210 Leukemia (intraperitoneal) in CD2F1 (CDF1) mice
Details: higher = longer survival
Summary of the method: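 Mice carrying a transplanted tumor received test compound or vehicle alone. The value is the measurement in the treated group divided by that in the vehicle-treated control group.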

[1] = endpoint: mean survival time, dose: 100.0 mg/kg/injection, schedule: Q04DX003 (ip), vehicle: Klucel (hydroxypropylcellulose) (HPC)
[2] = endpoint: mean survival time, dose: 200.0 mg/kg/injection, schedule: Q04DX003 (ip), vehicle: Klucel (hydroxypropylcellulose) (HPC)
[3] = endpoint: mean survival time, dose: 100.0 mg/kg/injection, schedule: Q01DX009 (ip), vehicle: saline with Tween-80
[4] = endpoint: mean survival time, dose: 100.0 mg/kg/injection, schedule: Q04DX003 (ip), vehicle: acetone
[5] = endpoint: mean survival time, dose: 100.0 mg/kg/injection, schedule: Q04DX003 (ip), vehicle: saline with Tween-80
[6] = endpoint: mean survival time, dose: 200.0 mg/kg/injection, schedule: Q01DX009 (ip), vehicle: saline with Tween-80
[7] = endpoint: mean survival time, dose: 200.0 mg/kg/injection, schedule: Q04DX003 (ip), vehicle: acetone
[8] = endpoint: mean survival time, dose: 200.0 mg/kg/injection, schedule: Q04DX003 (ip), vehicle: saline with Tween-80
[9] = endpoint: mean survival time, dose: 400.0 mg/kg/injection, schedule: Q01DX009 (ip), vehicle: saline with Tween-80
[10] = endpoint: mean survival time, dose: 400.0 mg/kg/injection, schedule: Q04DX003 (ip), vehicle: acetone
[11] = endpoint: mean survival time, dose: 400.0 mg/kg/injection, schedule: Q04DX003 (ip), vehicle: saline with Tween-80
[12] = endpoint: mean survival time, dose: 100.0 mg/kg/injection, schedule: Q04DX003 (ip), vehicle: saline
[13] = endpoint: mean survival time, dose: 100.0 mg/kg/injection, schedule: Q01DX009 (ip), vehicle: saline
[14] = endpoint: mean survival time, dose: 200.0 mg/kg/injection, schedule: Q01DX009 (ip), vehicle: saline
[15] = endpoint: mean survival time, dose: 100.0 mg/kg/injection, schedule: Q01DX001 (ip), vehicle: saline with Tween-80
[16] = endpoint: mean survival time, dose: 200.0 mg/kg/injection, schedule: Q01DX001 (ip), vehicle: saline with Tween-80
[17] = endpoint: mean survival time, dose: 400.0 mg/kg/injection, schedule: Q01DX001 (ip), vehicle: saline with Tween-80
[18] = endpoint: mean survival time, dose: 100.0 mg/kg/injection, schedule: Q01DX001 (ip), vehicle: Klucel (hydroxypropylcellulose) (HPC)
[19] = endpoint: mean survival time, dose: 75.0 mg/kg/injection, schedule: Q01DX001 (ip), vehicle: saline
[20] = endpoint: mean survival time, dose: 25.0 mg/kg/injection, schedule: Q04DX003 (ip), vehicle: saline with Tween-80
[21] = endpoint: mean survival time, dose: 50.0 mg/kg/injection, schedule: Q04DX003 (ip), vehicle: saline with Tween-80

Measured: T/C

Nc1cccc(C(=O)O)c1C(=O)O
inactive: endpoint: mean survival time, dose: 25.0 mg/kg/injection, schedule: Q01DX009 (ip), vehicle: saline with Tween-80 93 % of control

O=C(Nc1ccc(C(=O)O)cc1)Nc1ccc(F)c(Cl)c1
inactive: endpoint: mean survival time, dose: 50.0 mg/kg/injection, schedule: Q01DX009 (ip), vehicle: Klucel (hydroxypropylcellulose) (HPC) 109 % of control | endpoint: mean survival time, dose: 100.0 mg/kg/injection, schedule: Q01DX009 (ip), vehicle: Klucel (hydroxypropylcellulose) (HPC) 102 % of control | [1] 104 % of control | endpoint: mean survival time, dose: 200.0 mg/kg/injection, schedule: Q01DX009 (ip), vehicle: Klucel (hydroxypropylcellulose) (HPC) 95 % of control | [2] 104 % of control

NCc1ccccc1
inactive: [3] 96 % of control | [4] 110 % of control | [5] 99 % of control | [6] 100 % of control | [7] 108 % of control | [8] 99 % of control | [9] 98 % of control | [10] 97 % of control | [11] 97 % of control

COP(=O)(O)c1ccccc1 (tested in a mixture with another compound)
inactive: [12] 103 % of control | endpoint: mean survival time, dose: 200.0 mg/kg/injection, schedule: Q04DX003 (ip), vehicle: saline 106 % of control | endpoint: mean survival time, dose: 400.0 mg/kg/injection, schedule: Q04DX003 (ip), vehicle: saline 95 % of control

N=c1c2ncn(C3OC(CO)C(O)C3O)c2ncn1Cc1ccc([N+](=O)[O-])cc1 (stereo unspecified)
inactive: endpoint: mean survival time, dose: 100.0 mg/kg/injection, schedule: Q01DX001 (ip), vehicle: carboxymethylcellulose (CMC) 97 % of control | endpoint: mean survival time, dose: 200.0 mg/kg/injection, schedule: Q01DX001 (ip), vehicle: carboxymethylcellulose (CMC) 104 % of control | endpoint: mean survival time, dose: 400.0 mg/kg/injection, schedule: Q01DX001 (ip), vehicle: carboxymethylcellulose (CMC) 97 % of control

CC(=O)OCCc1nnnn1C
inactive: [3] 101 % of control | [5] 104 % of control | [6] 104 % of control | [8] 104 % of control | [9] 104 % of control | [11] 101 % of control

NC1=NCN2C(=N1)OC1C(O)C(CO)OC12 (stereo unspecified)
inactive: endpoint: mean survival time, dose: 1.56 mg/kg/injection, schedule: Q01DX009 (ip), vehicle: saline 94 % of control and 106 % of control | endpoint: mean survival time, dose: 3.12 mg/kg/injection, schedule: Q01DX009 (ip), vehicle: saline 91 % of control and 102 % of control | endpoint: mean survival time, dose: 6.25 mg/kg/injection, schedule: Q01DX009 (ip), vehicle: saline 91 % of control and 103 % of control | endpoint: mean survival time, dose: 12.5 mg/kg/injection, schedule: Q01DX009 (ip), vehicle: saline 91 % of control | endpoint: mean survival time, dose: 25.0 mg/kg/injection, schedule: Q01DX009 (ip), vehicle: saline 91 % of control and 100 % of control | endpoint: mean survival time, dose: 50.0 mg/kg/injection, schedule: Q01DX009 (ip), vehicle: saline 91 % of control and 97 % of control | [13] 92 % of control and 96 % of control | [14] 88 % of control and 100 % of control

COc1ccccc1C(=O)CC(O)(C(F)(F)F)C(F)(F)F
inactive: [15] 95 % of control | [16] 100 % of control | [17] 109 % of control

C#CCCCCCCCCCCC1(c2ccccc2)OCCO1
inactive: [1] 94 % of control | [2] 97 % of control | endpoint: mean survival time, dose: 400.0 mg/kg/injection, schedule: Q04DX003 (ip), vehicle: Klucel (hydroxypropylcellulose) (HPC) 95 % of control

C/C(Cc1ccccc1)=N\O
inactive: [5] 103 % of control | [8] 100 % of control | [11] 114 % of control

CS/C([S-])=N/N=C/c1ccccn1.[Cl][Pt+]
inactive: [5] 94 % of control | [8] 100 % of control

C=CCCCCCCCCC(=O)NCc1cccnc1
inactive: [5] 98 % of control | [8] 104 % of control | [11] 90 % of control

C/C=C/CC1CCCCC1C (stereo unspecified)
inactive: endpoint: mean survival time, dose: 50.0 mg/kg/injection, schedule: Q01DX009 (ip), vehicle: saline with Tween-80 96 % of control | [3] 96 % of control | [6] 108 % of control

N#C/C(=C(\N)c1ccccc1)c1ccccc1
inactive: [18] 93 % of control | endpoint: mean survival time, dose: 400.0 mg/kg/injection, schedule: Q01DX001 (ip), vehicle: Klucel (hydroxypropylcellulose) (HPC) 112 % of control

C=C(OP(=O)(OC)OC)Sc1ccccc1C
inactive: endpoint: median survival time, dose: 0.38 mg/kg/injection, schedule: Q01DX009 (ip), vehicle: Klucel (hydroxypropylcellulose) (HPC) 101 % of control | endpoint: median survival time, dose: 0.75 mg/kg/injection, schedule: Q01DX009 (ip), vehicle: Klucel (hydroxypropylcellulose) (HPC) 101 % of control

CCOC(=O)CC(C)(O)Cc1ccccc1 (stereo unspecified)
inactive: [4] 96 % of control | [7] 87 % of control | [10] 102 % of control

CC12CCC(=O)C=C1CCC1C2C(=O)CC2(C)C1CCC2(O)C(=O)Cn1c(=O)[nH]cc(F)c1=O (stereo unspecified)
inactive: endpoint: mean survival time, dose: 12.5 mg/kg/injection, schedule: Q04DX003 (ip), vehicle: Klucel (hydroxypropylcellulose) (HPC) 103 % of control | endpoint: mean survival time, dose: 25.0 mg/kg/injection, schedule: Q04DX003 (ip), vehicle: Klucel (hydroxypropylcellulose) (HPC) 97 % of control | endpoint: mean survival time, dose: 50.0 mg/kg/injection, schedule: Q04DX003 (ip), vehicle: Klucel (hydroxypropylcellulose) (HPC) 100 % of control | [1] 97 % of control | [2] 97 % of control

CC(=O)NC1=NC(=O)/C(=C/Cc2cccs2)N1C
inactive: [3] 101 % of control | [6] 108 % of control

O=S(=O)(O)Sc1ccccc1
inactive: endpoint: mean survival time, dose: 25.0 mg/kg/injection, schedule: Q04DX003 (ip), vehicle: saline 97 % of control | endpoint: mean survival time, dose: 50.0 mg/kg/injection, schedule: Q04DX003 (ip), vehicle: saline 97 % of control | [12] 98 % of control

CC(=O)N1NC2C(=O)N(C3CCCCC3)CC2C1c1ccccc1 (stereo unspecified)
inactive: [3] 93 % of control | [6] 100 % of control | [9] 93 % of control

CC(=O)C(C(=N)C#N)C(C)=O
inactive: endpoint: mean survival time, dose: 50.0 mg/kg/injection, schedule: Q04DX002 (ip), vehicle: saline with Tween-80 101 % of control | endpoint: mean survival time, dose: 100.0 mg/kg/injection, schedule: Q04DX002 (ip), vehicle: saline with Tween-80 89 % of control | endpoint: mean survival time, dose: 200.0 mg/kg/injection, schedule: Q04DX002 (ip), vehicle: saline with Tween-80 89 % of control

CCCC(C)C1C(=O)N(C)C(=O)N(C)C1=O (stereo unspecified)
inactive: [19] 104 % of control | endpoint: mean survival time, dose: 150.0 mg/kg/injection, schedule: Q01DX001 (ip), vehicle: saline 103 % of control | endpoint: mean survival time, dose: 300.0 mg/kg/injection, schedule: Q01DX001 (ip), vehicle: saline 98 % of control

C1N2CN3CN1CN(C2)C3.[Cl][Pt][Cl]
inactive: [20] 123 % of control | [21] 101 % of control | [5] 98 % of control

Cc1ccc2c(c1)CCCN2C(=O)c1ccccc1
inactive: endpoint: mean survival time, dose: 100.0 mg/kg/injection, schedule: Q04DX003 (ip), vehicle: other 89 % of control | endpoint: mean survival time, dose: 200.0 mg/kg/injection, schedule: Q04DX003 (ip), vehicle: other 92 % of control | endpoint: mean survival time, dose: 400.0 mg/kg/injection, schedule: Q04DX003 (ip), vehicle: other 94 % of control

O=C(O)COc1ccc(-c2ccccc2)cc1
inactive: [5] 104 % of control | [8] 90 % of control | [11] 101 % of control

C=CCOc1ccc(OC)cc1
inactive: [5] 97 % of control | [8] 97 % of control | [11] 92 % of control

COc1ccccc1OC(=O)Nc1ccc(C)c([N+](=O)[O-])c1
inactive: [20] 96 % of control | [21] 93 % of control | [5] 98 % of control and 103 % of control | [11] 97 % of control

CN(C)/N=C/c1ccc(-c2ccccc2)cc1
inactive: [15] 101 % of control | [16] 103 % of control | [17] 112 % of control

COc1ccc(C(C)c2ccccc2)cc1 (stereo unspecified)
inactive: [3] 97 % of control | [6] 95 % of control | [9] 97 % of control

COc1ccc2c(ccc3nc(C)[nH]c(=O)c32)c1
inactive: endpoint: mean survival time, dose: 25.0 mg/kg/injection, schedule: Q01DX001 (ip), vehicle: Klucel (hydroxypropylcellulose) (HPC) 102 % of control | endpoint: mean survival time, dose: 50.0 mg/kg/injection, schedule: Q01DX001 (ip), vehicle: Klucel (hydroxypropylcellulose) (HPC) 94 % of control | [18] 90 % of control

CCOC(=O)/C(C#N)=N/O
inactive: [19] 100 % of control

O=CNc1ccc2c(c1)C(Br)c1ccccc1-2 (stereo unspecified)
inactive: [3] 93 % of control | [5] 97 % of control | [8] 100 % of control | [11] 88 % of control

C#CCP(=O)(OCC)OCC
inactive: [13] 95 % of control | [14] 95 % of control | endpoint: mean survival time, dose: 400.0 mg/kg/injection, schedule: Q01DX009 (ip), vehicle: saline 94 % of control
